SMILES strings stand for the structures. Where only a bound is given, the exact number is not on record here.

This test relates to breast cancer cell line MX-1. The test is described as follows: MX-1 cell line proliferation assay, Method A. Format: cell-based. The following applies: Homo sapiens, MX1; MX-1 cells, 96-well, 72 hours, Cell Titer Glo; read-out: Cellular proliferation: EC50 Method A. The method, then:
The impact of compounds of the Examples on cancer cell proliferation was determined using the breast cancer cell line MX-1 (ATCC) in a 3-day proliferation assay and the data are reported in Table 1.
MX-1 cells were maintained in RPMI 1640 medium (Sigma) supplemented with 10% FBS at 37° C. and an atmosphere of 5% CO2. For compound testing, MX-1 cells were plated in 96-well black bottom plates at a density of 5000 cells/well in 90 μL of culture media and incubated at 370 overnight to allow cell adhesion and spreading. Compound dilution series were prepared in DMSO via a 3-fold serial dilution from 3 mM to 0.1 μM. The DMSO dilution series were then diluted 1:100 in phosphate buffered saline, and 10 μL of the resulted solution were added to the appropriate wells of the MX-1 cell plate. The final compound concentrations in the wells were 3, 1, 0.3, 0.1, 0.03, 0.01, 0.003, 0.001, 0.0003 and 0.0001 μM.
Luminescence readings from the Cell Titer Glo assay were normalized to the DMSO treated cells and analyzed using the GraphPad Prism software with sigmoidal curve fitting to obtain ECs50s. The minimum significant ratio (MSR) was determined to evaluate assay reproducibility (Eastwood et al., (2006) J Biomol Screen, 11: 253-261).
For `Cn1cc(-c2cc(S(C)(=O)=O)ccc2Oc2cccc(NS(=O)(=O)c3cccc(C#N)c3)c2)c2cc[nH]c2c1=O` [Example 57, 3-cyano-N-{3-[2-(6-methyl-7-oxo-6,7-dihydro-1H-pyrrolo[2,3-c]pyridin-4-yl)-4-(methylsulfonyl)phenoxy]phenyl}benzenesulfonamide], the EC50 was over 1000 nM.

On to `Cn1cc(-c2cc(S(C)(=O)=O)ccc2Oc2cccc(NS(=O)(=O)c3ccc(F)cc3Cl)c2)c2cc[nH]c2c1=O` [Example 58], for which the EC50 was found to be 152 nM.

As to `Cn1cc(-c2cc(S(C)(=O)=O)ccc2Oc2cccc(NCc3cccc(C#N)c3)c2)c2cc[nH]c2c1=O` [Example 60, 3-[({3-[2-(6-methyl-7-oxo-6,7-dihydro-1H-pyrrolo[2,3-c]pyridin-4-yl)-4-(methylsulfonyl)phenoxy]phenyl}amino)methyl]benzonitrile], the EC50 was determined as 64.1 nM.

As to `Cn1cc(-c2cc(S(C)(=O)=O)ccc2Oc2cccc(NCc3ccc(C#N)cc3)c2)c2cc[nH]c2c1=O` [Example 61, 4-[({3-[2-(6-methyl-7-oxo-6,7-dihydro-1H-pyrrolo[2,3-c]pyridin-4-yl)-4-(methylsulfonyl)phenoxy]phenyl}amino)methyl]benzonitrile], the EC50 was determined as 43 nM.

Take `Cn1cc(-c2cc(S(C)(=O)=O)ccc2Oc2cccc(NCc3ccc(F)cc3)c2)c2cc[nH]c2c1=O` [Example 62, 4-[2-{3-[(4-fluorobenzyl)amino]phenoxy}-5-(methylsulfonyl)phenyl]-6-methyl-1,6-dihydro-7H-pyrrolo[2,3-c]pyridin-7-one]: the EC50 came out at 51.1 nM.

As to `COCCNc1cccc(Oc2ccc(S(C)(=O)=O)cc2-c2cn(C)c(=O)c3[nH]ccc23)c1` [Example 64, 4-[2-{3-[(2-methoxyethyl)amino]phenoxy}-5-(methylsulfonyl)phenyl]-6-methyl-1,6-dihydro-7H-pyrrolo[2,3-c]pyridin-7-one], the EC50 came to 52.6 nM.

Turning to `Cn1cc(-c2cc(S(C)(=O)=O)ccc2Oc2cccc(NCC3CCCO3)c2)c2cc[nH]c2c1=O` (centres unmarked) [Example 65, 6-methyl-4-[5-(methylsulfonyl)-2-{3-[(tetrahydrofuran-2-ylmethyl)amino]phenoxy}phenyl]-1,6-dihydro-7H-pyrrolo[2,3-c]pyridin-7-one], the EC50 was determined as 40 nM.

For the compound `COc1cccc(CNc2cccc(Oc3ccc(S(C)(=O)=O)cc3-c3cn(C)c(=O)c4[nH]ccc34)c2)c1` [Example 66, 4-[2-{3-[(3-methoxybenzyl)amino]phenoxy}-5-(methylsulfonyl)phenyl]-6-methyl-1,6-dihydro-7H-pyrrolo[2,3-c]pyridin-7-one], the EC50 is 54.7 nM.

`Cn1cc(-c2cc(S(C)(=O)=O)ccc2Oc2cccc(NCc3ccccc3F)c2)c2cc[nH]c2c1=O` [Example 67, 4-[2-{3-[(2-fluorobenzyl)amino]phenoxy}-5-(methylsulfonyl)phenyl]-6-methyl-1,6-dihydro-7H-pyrrolo[2,3-c]pyridin-7-one]: the EC50 was determined as 50.6 nM.

As for `Cn1cc(-c2cc(S(C)(=O)=O)ccc2Oc2cccc(NCc3cccc(OC(F)(F)F)c3)c2)c2cc[nH]c2c1=O` [Example 69, 6-methyl-4-[5-(methylsulfonyl)-2-(3-{[3-(trifluoromethoxy)benzyl]amino}phenoxy)phenyl]-1,6-dihydro-7H-pyrrolo[2,3-c]pyridin-7-one], the EC50 was found to be 93.3 nM.

In the case of `Cn1cc(-c2cc(S(C)(=O)=O)ccc2Oc2cccc(NCc3cc(F)cc(F)c3)c2)c2cc[nH]c2c1=O` [Example 73, 4-[2-{3-[(3,5-difluorobenzyl)amino]phenoxy}-5-(methylsulfonyl)phenyl]-6-methyl-1,6-dihydro-7H-pyrrolo[2,3-c]pyridin-7-one], the EC50 is 62.4 nM.

For the compound `CN(C)CCCOc1ccc(CNc2cccc(Oc3ccc(S(C)(=O)=O)cc3-c3cn(C)c(=O)c4[nH]ccc34)c2)cc1` [Example 74, 4-{2-[3-({4-[3-(dimethylamino)propoxy]benzyl}amino)phenoxy]-5-(methylsulfonyl)phenyl}-6-methyl-1,6-dihydro-7H-pyrrolo[2,3-c]pyridin-7-one], the EC50 came out at 45.1 nM.

For the compound `CN(C)c1cccc(CNc2cccc(Oc3ccc(S(C)(=O)=O)cc3-c3cn(C)c(=O)c4[nH]ccc34)c2)c1` [Example 75, 4-[2-(3-{[3-(dimethylamino)benzyl]amino}phenoxy)-5-(methylsulfonyl)phenyl]-6-methyl-1,6-dihydro-7H-pyrrolo[2,3-c]pyridin-7-one], the EC50 was found to be 112 nM.

In the case of `Cn1cc(-c2cc(S(C)(=O)=O)ccc2Oc2cccc(NCc3ccc4c(c3)OCCO4)c2)c2cc[nH]c2c1=O` [Example 76, 4-[2-{3-[(2,3-dihydro-1,4-benzodioxin-6-ylmethyl)amino]phenoxy}-5-(methylsulfonyl)phenyl]-6-methyl-1,6-dihydro-7H-pyrrolo[2,3-c]pyridin-7-one], the EC50 was 49.9 nM.

Consider `Cn1cc(-c2cc(S(C)(=O)=O)ccc2Oc2cccc(NCC3CCOC3)c2)c2cc[nH]c2c1=O` (centres unmarked) [Example 77, 6-methyl-4-[5-(methylsulfonyl)-2-{3-[(tetrahydrofuran-3-ylmethyl)amino]phenoxy}phenyl]-1,6-dihydro-7H-pyrrolo[2,3-c]pyridin-7-one], for which the EC50 was determined as 69.2 nM.

For `Cn1cc(-c2cc(S(C)(=O)=O)ccc2Oc2cccc(NCC3CC3)c2)c2cc[nH]c2c1=O` [Example 80, 4-[2-{3-[(cyclopropylmethyl)amino]phenoxy}-5-(methylsulfonyl)phenyl]-6-methyl-1,6-dihydro-7H-pyrrolo[2,3-c]pyridin-7-one], the EC50 came to 128 nM.

With `CCS(=O)(=O)c1ccc(Oc2ccc(Cl)cc2C#CCN2CCOCC2)c(-c2cn(C)c(=O)c3[nH]ccc23)c1` [Example 82, 4-[2-{4-chloro-2-[3-(morpholin-4-yl)prop-1-yn-1-yl]phenoxy}-5-(ethylsulfonyl)phenyl]-6-methyl-1,6-dihydro-7H-pyrrolo[2,3-c]pyridin-7-one], the EC50 was 221 nM.

As to `CCS(=O)(=O)c1ccc(Oc2ccc(Cl)cc2CCCN2CCOCC2)c(-c2cn(C)c(=O)c3[nH]ccc23)c1` [Example 83, 4-[2-{4-chloro-2-[3-(morpholin-4-yl)propyl]phenoxy}-5-(ethylsulfonyl)phenyl]-6-methyl-1,6-dihydro-7H-pyrrolo[2,3-c]pyridin-7-one], the EC50 was 89.9 nM.

As to `Cn1cc(-c2cc(S(C)(=O)=O)ccc2NC2CCN(S(=O)(=O)c3ccccc3)CC2)c2cc[nH]c2c1=O` [Example 84, 6-methyl-4-[5-(methylsulfonyl)-2-{[1-(phenylsulfonyl)piperidin-4-yl]amino}phenyl]-1,6-dihydro-7H-pyrrolo[2,3-c]pyridin-7-one], the EC50 was 87.8 nM.

Take `CN(C)CC(=O)N1CCC(Nc2ccc(S(C)(=O)=O)cc2-c2cn(C)c(=O)c3[nH]ccc23)CC1` [Example 85, 4-[2-({1-[(dimethylamino)acetyl]piperidin-4-yl}amino)-5-(methylsulfonyl)phenyl]-6-methyl-1,6-dihydro-7H-pyrrolo[2,3-c]pyridin-7-one]: the EC50 was over 1000 nM.

Take `CC(=O)Nc1ccc(CN2CCC(Nc3ccc(S(C)(=O)=O)cc3-c3cn(C)c(=O)c4[nH]ccc34)CC2)cc1` [Example 87, N-{4-[(4-{[2-(6-methyl-7-oxo-6,7-dihydro-1H-pyrrolo[2,3-c]pyridin-4-yl)-4-(methylsulfonyl)phenyl]amino}piperidin-1-yl)methyl]phenyl}acetamide]: the EC50 amounted to 325 nM.

Consider `CN1CCN(CC(=O)N2CCC(Nc3ccc(S(C)(=O)=O)cc3-c3cn(C)c(=O)c4[nH]ccc34)CC2)CC1` [Example 96, 6-methyl-4-[2-({1-[(4-methylpiperazin-1-yl)acetyl]piperidin-4-yl}amino)-5-(methylsulfonyl)phenyl]-1,6-dihydro-7H-pyrrolo[2,3-c]pyridin-7-one], for which the EC50 was over 1000 nM.

For the compound `Cn1cc(-c2cc(S(C)(=O)=O)ccc2NC2CCN(S(=O)(=O)Cc3ccccc3)CC2)c2cc[nH]c2c1=O` [Example 101, 4-[2-{[1-(benzylsulfonyl)piperidin-4-yl]amino}-5-(methylsulfonyl)phenyl]-6-methyl-1,6-dihydro-7H-pyrrolo[2,3-c]pyridin-7-one], the EC50 is 72.9 nM.

As for `COc1ccc(S(=O)(=O)N2CCC(Nc3ccc(S(C)(=O)=O)cc3-c3cn(C)c(=O)c4[nH]ccc34)CC2)cc1` [Example 104, 4-[2-({1-[(4-methoxyphenyl)sulfonyl]piperidin-4-yl}amino)-5-(methylsulfonyl)phenyl]-6-methyl-1,6-dihydro-7H-pyrrolo[2,3-c]pyridin-7-one], the EC50 was 176 nM.

For `Cn1cc(-c2cc(S(C)(=O)=O)ccc2N[C@H]2CC[C@H](NCc3cccs3)CC2)c2cc[nH]c2c1=O` [Example 107, 6-methyl-4-[5-(methylsulfonyl)-2-({trans-4-[(thiophen-2-ylmethyl)amino]cyclohexyl}amino)phenyl]-1,6-dihydro-7H-pyrrolo[2,3-c]pyridin-7-one], the EC50 amounted to 23.5 nM.

For the compound `CC(=O)Nc1ccc(CN[C@H]2CC[C@H](Nc3ccc(S(C)(=O)=O)cc3-c3cn(C)c(=O)c4[nH]ccc34)CC2)cc1` [Example 108, N-(4-{[(trans-4-{[2-(6-methyl-7-oxo-6,7-dihydro-1H-pyrrolo[2,3-c]pyridin-4-yl)-4-(methylsulfonyl)phenyl]amino}cyclohexyl)amino]methyl}phenyl)acetamide], the EC50 was found to be 299 nM.

For the origin of these results see patent US10131657B2, “Bromodomain inhibitors” (AbbVie Inc., priority 2013, dated 2018).
